Assay results: US20250177351A1, “ISOINDOLINE COMPOSITIONS AND METHODS FOR TREATING NEURODEGENERATIVE DISEASE” (Cognition Therapeutics, Inc., priority 2022, published 2025)
Entries after “also recorded” stand apart in the source; their conditions may differ. Marks after values point to notes of the source that are not given here.

Key:
Format in all cases: in vivo, human
[1] = Phase 1b/2a clinical trial (COG0102): safety, tolerability, exploratory cognitive outcomes
Procedure: Safety and pharmacokinetics were primary objectives of the study, with changes in molecular biomarkers and cognitive outcomes identified as an exploratory objective.
Plasma and CSF protein expression were measured by LC/MSMS in samples drawn prior to dosing (Day 0) and at end of dosing (Day 28) and were compared within each patient and between dosing groups.
COG0102 clinical trial: This trial (ClinicalTrials.gov NCT02907567) was a randomized, double-blind, placebo-controlled clinical trial in mild to moderate Alzheimer's patients (MMSE 18-26) (See FIG. 1 for clinical trial design). The trial was conducted at six sites in Australia. Patients were randomized into placebo (n=5) or CT1812-treated groups: 90 mg (n=4), 280 mg (n=5) or 560 mg (n=5) and treated once daily for 28 days. Clinical chemistry was done at Sydpath (Sydney, AU). Pharmacokinetics were done at CPR Pharma Services (Adelaide, AU). Cerebrospinal fluid samples were taken at screening and day 21-28 of treatment and aliquoted. Plasma samples were taken at screening or Day 1 (one sample) and day 14-28, then spun down to separate plasma and aliquoted. One set of CSF samples was analyzed for Alzheimer's disease biomarkers; protein measurements (Aβ42, Aβ40, total tau, tau phosphorylated at threonine 181 (phosphorylated tau), NFL and neurogranin) were performed using commercially available ELISA assays from Fujirebio according to the manufacturer's instructions (INNOTEST β-AMYLOID(1-42), INNOTEST β-AMYLOID(1-40), INNOTEST hTau Ag, INNOTEST PHOSPHO-TAU(181P), Uman Diagnostics NFL assay). Neurogranin was measured with a sandwich ELISA method using antibodies Ng2 and Ng22 developed at the University of Gotteborg (Kvartsberg et al. 2015). Identical aliquots of CSF, and plasma were analyzed for protein expression changes via LC/MSMS at Caprion (see below).

[2] = Phase 1 multiple ascending dose (MAD) study: plasma pharmacokinetics; design: CLss/F: unit not given here; conditions: for CLss/F / t1/2: MAD
Procedure: A Phase 1, two-part single and multiple ascending dose study was conducted in 7 and 4 cohorts of healthy human subjects respectively. […] In Part B, subjects were administered 280, 560, and 840 mg once daily for 14 days (8:2 A:P per cohort). An elderly cohort, age 65-75, was dosed at 560 mg once daily for 14 days (7:2 A:P). […] Cognitive testing was performed in the healthy elderly cohort at baseline and at Day 14 of treatment.
In Part B, healthy young subjects in each cohort received the same dose once daily for 14 days after overnight fasting. Cohort dosing started at 280 mg, followed by 560 mg and 840 mg in subsequent cohorts. In each cohort, eight subjects received drug and two received placebo. A fourth cohort of healthy elderly subjects (≥65 years old) received a 560 mg dose vs. placebo daily for 14 days (seven active, two placebo).
Subjects were dosed in the morning with 240 mL of water after an 8-hour fast, and remained in a semi-reclined position for 1 hour and fasting for 2 hours post-administration, except for the fed cohort in Part A. Subjects in each MAD cohort were confined to the clinical facility from check-in on Day 0 until the pharmacokinetic sample was collected on Day 16, 48 hours after administration of the last dose on Day 14. Subjects returned to the clinical facility for follow-up visits on Days 24 and 35.
In Part A, blood draws for assessment of PK parameters occurred pre-dose and at 15, 30, 45, 60, and 90 minutes post dose as well as at 2, 3, 4, 8, 12, 24, 36, and 48 hours post dose. […] In Part B, blood samples for plasma PK analysis were taken on Day 1 at pre-dose and at 2 hours post-dose, on Day 3 at pre-dose and at 15, 30 and 45 minutes and 1, 2, 3, 4, 8, 12 and 24 hours post-dose, on Days 4, 6, 8 and 10 at pre-dose and at 1.5 hours post-dose and following the final dose on Day 14 at pre-dose and 15, 30 and 45 minutes and 1, 2, 4, 8, 12, 24, 36 and 48 hours post-dose.
This was assessed by analysis of variance (ANOVA) of log-transformed Cmax, AUC0-24, AUC0-48, and/or AUC0-inf, using a model with factors for treatment (fed status or age [young vs. elderly] status) and subject within sequence. Treatment mean differences and 90% confidence intervals of the log transformed PK parameters were back-transformed, to present the geometric least squares means ratios and 90% confidence limits.

[3] = Phase 1 MAD study: CT1812 concentration in CSF; conditions: humans, from CSF levels
Description: CT1812 was quantitated in CSF using a validated LC-MS/MS method.

[4] = AD patients, 28 days, 90 mg (as in Table 3)
[5] = AD patients, 28 days, 90 mg (n = 4)
[6] = AD patients, 28 days, 280 mg (as in Table 3)
[7] = AD patients, 28 days, 280 mg (n = 5)
[8] = AD patients, 28 days, 560 mg (as in Table 3)
[9] = AD patients, 28 days, 560 mg (n = 5)
[10] = MAD 560 mg, Day 14 (steady state)
[11] = age up to 64 years, 280 mg (n = 8), Day 14, mean
[12] = age up to 64 years, 560 mg (n = 8), Day 14, mean

CC(C)(C)Oc1cc(CCC(C)(C)N2Cc3ccc(S(C)(=O)=O)cc3C2)ccc1O [CT1812]
patients with lymphocytopenia ([1]; AD patients, 560 mg, 3 mild, resolved by end of study): Four
ALT in one participant ([1]; AD patients, 560 mg, resolved by end of study, no increase in bilirubin): ~4.7 ×ULN
tolerability ([1]; AD patients, 90, 280 and 560 mg, 28 days): well tolerated with no drug-related significant adverse events reported; also recorded: generally safe and well tolerated at all doses
Headache [1, 4]: 1 (25%) n (%)
Lymphocytopenia [1, 4]: 0 (0%) n (%)
Nausea [1, 4]: 0 (0%) n (%)
Vomiting [1, 4]: 0 (0%) n (%)
Mild TEAEs [1, 5]: 4 (100%) n (%)
Moderate TEAEs [1, 5]: 0 (0%) n (%)
SAEs [1, 5]: 0 (0%) n (%)
Severe TEAEs [1, 5]: 0 (0%) n (%)
TEAEs [1, 5]: 3 (75%) n (%)
Headache [1, 6]: 0 (0%) n (%)
Lymphocytopenia [1, 6]: 0 (0%) n (%)
Nausea [1, 6]: 0 (0%) n (%)
Vomiting [1, 6]: 0 (0%) n (%)
Mild TEAEs [1, 7]: 3 (60%) n (%)
Moderate TEAEs [1, 7]: 1 (20%) n (%)
SAEs [1, 7]: 0 (0%) n (%)
Severe TEAEs [1, 7]: 0 (0%) n (%)
TEAEs [1, 7]: 4 (80%) n (%)
Headache [1, 8]: 2 (40%) n (%)
Lymphocytopenia [1, 8]: 3 (60%)* n (%)
Nausea [1, 8]: 2 (40%) n (%)
Vomiting [1, 8]: 2 (40%) n (%)
Mild TEAEs [1, 9]: 5 (100%) n (%)
Moderate TEAEs [1, 9]: 3 (60%) n (%)
SAEs [1, 9]: 0 (0%) n (%)
Severe TEAEs [1, 9]: 0 (0%) n (%)
TEAEs [1, 9]: 5 (100%) n (%)
AUC0-24h, aged cohort vs subjects under 64 years (geometric least-squares mean) ([2]; MAD 560 mg, Day 3): ~1.34 times
Cmax, aged cohort vs subjects under 64 years (geometric least-squares mean) ([2]; MAD 560 mg, Day 3): approximately 1.7 times
AUC0-24h, aged cohort vs younger subjects [2, 10]: 1.5 times
Cmax, aged cohort vs younger subjects [2, 10]: 1.6 times
increase of Cmax and AUC with dose ([2]; MAD 280 to 840 mg): slightly greater than dose proportionally
CLss/F ([2]; age at least 65 years, 560 mg (n = 7), Day 14, mean): 169^‡‡
t1/2 ([2]; age at least 65 years, 560 mg, Day 3 (n = 4), over max. 24 hours post dose): 8.83^†† hr
CLss/F [2, 11]: 387
t1/2 [2, 11]: 12.0 h
CLss/F [2, 12]: 296
t1/2 [2, 12]: 12.3 h
CLss/F ([2]; age up to 64 years, dose cell prints 560 mg (n = 7), Day 14, follows 840 mg Day 3): 212^‡‡
t1/2 ([2]; age up to 64 years, dose cell prints 560 mg (n = 7), Day 14, follows 840 mg Day 3 (n = 6)): 8.93^§ hr
accumulation in plasma ([2]; over 14 days): minimal accumulation
blood-brain barrier penetration [3]: penetrates the blood-brain barrier
